Measured values taken from US12522597B2, “Methods and compositions for modulating splicing” (Skyhawk Therapeutics, Inc., priority 2019, dated 2026).
Like-named read-outs stand apart in the source and are kept apart here.

Key:
mHTT protein = mHTT protein assay (2B7-MW1, Mesoscale Discovery); type: cell-based, human; settings: GM04724 (CAG 70/20) Huntington's disease patient lymphoblast cells, 48 hours, 2B7-MW1 MSD; read-out: HTT Potency - Protein EC50 mHTT (average)
Procedure, shortened: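 mHTT levels were read with the 2B7-MW1 antibody pair (N17 and polyQ epitopes) on MSD after 48 h dosing, 10 μM–0.6 nM. Cells were GM04724 HD lymphoblasts (CAG 70/20). A replica plate was read by CTG for cell viability.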

[1] = tested on: MDR1-MDCK cell monolayers; assay: MDCK-MDR1 permeability assay (BBB penetration potential); type: in vitro ADME; settings: dog, MDCK-MDR1, 120 min, 5 μM, pH 7.4
Method: (§1) Each determination is performed in duplicate. […] Analytical conditions are outlined below.

MDR1 = assay: as above; type: in vitro ADME; settings: dog; for efflux ratio at 120 min, 5 μM: MDCK-MDR1, pH 7.4, MDCK-MDR1: Efflux; for Papp A→B at 120 min, 5 μM: MDCK-MDR1, pH 7.4, MDCK-MDR1: Papp A-B; for Papp B→A at 120 min, 5 μM: MDCK-MDR1, pH 7.4, MDCK-MDR1: Papp B-A
Method: as §1

[2] = tested on: Huntingtin (HTT) transcripts; assay: Quantitative splicing assay (HTT), qPCR; type: cell-based; settings: Homo sapiens, GM04724 (CAG 70/20) Huntington's disease patient lymphoblasts, 24 h
Procedure, shortened: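 Read-out is TaqMan qPCR on cDNA, quantifying inclusion of a cryptic exon within HTT intron 49. Cells were Huntington's patient lymphoblasts GM04724 (CAG 70/20), treated for 24 h at 0.15 nM–2.5 uM compound in 0.1% DMSO.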

[3] = qPCR HTTex49_50, read-out: HTT Potency - Splicing: E49-50 EC50 (average)
[4] = qPCR cryptic exon 49b inclusion, read-out: HTT Potency - Splicing: E49b EC50 (average)

Structure (SMILES) | EC50 (mHTT protein) | MDCK-MDR1: % Recov A-B [1] | MDCK-MDR1: % Recov B-A [1] | efflux ratio at 120 min, 5 μM (MDR1) | Papp A→B at 120 min, 5 μM (MDR1) | Papp B→A at 120 min, 5 μM (MDR1) | EC50 [2, 3] | EC50 [2, 4]
Cn1cc(-c2ccc(-c3ccc(O[C@@H]4C[C@H]5CCC[C@H](N5)[C@@H]4F)nn3)c(O)c2)oc1=O (single isomer, unassigned) [97-ENT1] | 0.01 to 15 nM | 83% | 78% | 14 | 3.67 ×10⁻⁶ cm/s | 50.4 ×10⁻⁶ cm/s | 16 to 50 nM | 16 to 50 nM
Cn1cc(-c2ccc(-c3ccc(O[C@@H]4C[C@@H]5CCC[C@@H](N5)[C@H]4F)nn3)c(O)c2)cn1 (single isomer, unassigned) [121-ENT2] | 501 to 10000 nM | 75% | 90% | 3 | 13.5 ×10⁻⁶ cm/s | 45.9 ×10⁻⁶ cm/s | 501 to 10000 nM | 501 to 10000 nM
Cn1cc(-c2ccc(-c3ccc(O[C@@H]4C[C@@]5(C)CC[C@](C)(N5)[C@@H]4F)nn3)c(O)c2)cn1 (single isomer, unassigned) [150-ENT2] | 16 to 50 nM | 78% | 87% | 4 | 9.06 ×10⁻⁶ cm/s | 38.6 ×10⁻⁶ cm/s | 16 to 50 nM | 16 to 50 nM
COc1cc(-c2ccc(-c3ccc(O[C@H]4C[C@]5(C)CC[C@@](C)(N5)[C@H]4F)nn3)c(O)c2)cnn1 (single isomer, unassigned) [157-ENT2] | 16 to 50 nM | 82% | 81% | 5 | 6.79 ×10⁻⁶ cm/s | 36.1 ×10⁻⁶ cm/s | 16 to 50 nM | 16 to 50 nM
COc1cc(-c2ccc(-c3ccc(O[C@@H]4C[C@H]5CCC[C@H](N5)[C@@H]4F)nn3)c(O)c2)cnn1 (single isomer, unassigned) [76-ENT1] | 16 to 50 nM | 64% | 70% | 8 | 3.83 ×10⁻⁶ cm/s | 32.3 ×10⁻⁶ cm/s | 0.01 to 15 nM | 0.01 to 15 nM
Cn1ccc(-c2ccc(-c3ccc(O[C@H]4C[C@]5(C)CCC[C@@](C)(N5)[C@H]4F)nn3)c(O)c2)cc1=O (single isomer, unassigned) [149-ENT1] | 16 to 50 nM | 76% | 79% | 22 | 2.23 ×10⁻⁶ cm/s | 48.6 ×10⁻⁶ cm/s | 51 to 100 nM | 16 to 50 nM
Oc1cc(-c2cn[nH]c2)ccc1-c1ccc(O[C@@H]2C[C@H]3CC(F)(F)[C@@H](C2)N3)nn1 (single isomer, unassigned) [46-ENT2] | 101 to 500 nM | 72% | 83% | 3 | 14.2 ×10⁻⁶ cm/s | 43.2 ×10⁻⁶ cm/s | 101 to 500 nM | 101 to 500 nM
Cn1c(=O)oc2cc(-c3ccc(O[C@@H]4C[C@H]5CCC[C@H](N5)[C@@H]4F)nn3)c(O)cc21 (single isomer, unassigned) [74-ENT1] | 501 to 10000 nM | 96% | 88% | 4 | 5.6 ×10⁻⁶ cm/s | 22.8 ×10⁻⁶ cm/s | 101 to 500 nM | 501 to 10000 nM
Oc1cc(-c2nnco2)ccc1-c1ccc(O[C@H]2C[C@@H]3CC[C@@H](N3)[C@H]2F)nn1 (single isomer, unassigned) [140-ENT1] | 101 to 500 nM | 92% | 95% | 2 | 18.1 ×10⁻⁶ cm/s | 43.3 ×10⁻⁶ cm/s | 101 to 500 nM | 101 to 500 nM
Cn1cc(-c2ccc(-c3ccc(O[C@@H]4C[C@H]5CCC[C@H](N5)[C@@H]4F)nn3)c(O)c2)cn1 (single isomer, unassigned) [1-ENT1] | 0.01 to 15 nM | 85% | 84% | 6 | 6.16 ×10⁻⁶ cm/s | 37.9 ×10⁻⁶ cm/s | 16 to 50 nM | 16 to 50 nM
Cn1ccc2cc(-c3ccc(O[C@@H]4C[C@H]5CCC[C@H](N5)[C@@H]4F)nn3)c(O)cc2c1=O (single isomer, unassigned) [125-ENT2] | 16 to 50 nM | 84% | 87% | 16 | 3.2 ×10⁻⁶ cm/s | 52 ×10⁻⁶ cm/s | 101 to 500 nM | 51 to 100 nM
Oc1cc(-c2cn[nH]c2)ccc1-c1ccc(O[C@@H]2C[C@H]3CCC[C@H](N3)[C@@H]2F)nn1 (single isomer, unassigned) [40-ENT2] | 0.01 to 15 nM | 80% | 83% | 17 | 2.47 ×10⁻⁶ cm/s | 41.6 ×10⁻⁶ cm/s | 0.01 to 15 nM | 0.01 to 15 nM
Oc1cc(-c2ccn3ccnc3c2)ccc1-c1ccc(O[C@H]2C[C@@H]3CCC[C@@H](N3)[C@H]2F)nn1 (single isomer, unassigned) [83-ENT2] | 101 to 500 nM | 47% | 66% | 12 | 0.77 ×10⁻⁶ cm/s | 9.61 ×10⁻⁶ cm/s | 501 to 10000 nM | 501 to 10000 nM
Oc1cc(-c2cn[nH]c2)ccc1-c1ccc(O[C@H]2C[C@@H]3CC(F)(F)[C@H](C2)N3)nn1 (single isomer, unassigned) [46-ENT1] | 501 to 10000 nM | 70% | 88% | 3 | 18.3 ×10⁻⁶ cm/s | 47 ×10⁻⁶ cm/s | 501 to 10000 nM | 501 to 10000 nM
Oc1cc(-c2cn[nH]c2)ccc1-c1ccc(O[C@@H]2C[C@H]3CC[C@H](N3)[C@@H]2F)nn1 (single isomer, unassigned) [42-ENT2] | 0.01 to 15 nM | 85% | 86% | 12 | 3.2 ×10⁻⁶ cm/s | 38.5 ×10⁻⁶ cm/s | 0.01 to 15 nM | 0.01 to 15 nM
Cn1ccc2cc(-c3ccc(O[C@H]4C[C@]5(C)CC[C@@](C)(N5)[C@H]4F)nn3)c(O)cc2c1=O (single isomer, unassigned) [127-ENT1] | 51 to 100 nM | 78% | 70% | 7 | 6.39 ×10⁻⁶ cm/s | 46.5 ×10⁻⁶ cm/s | 101 to 500 nM | 101 to 500 nM
O=c1cc(-c2ccc(-c3ccc(O[C@@H]4C[C@H]5CCC[C@H](N5)[C@@H]4F)nn3)c(O)c2)cc[nH]1 (single isomer, unassigned) [53-ENT1] | 101 to 500 nM | 91% | 90% | 103 | 0.22 ×10⁻⁶ cm/s | 22.2 ×10⁻⁶ cm/s | 101 to 500 nM | 101 to 500 nM
Cn1cnc2cc(O)c(-c3ccc(O[C@@H]4C[C@@]5(C)CCC[C@](C)(N5)[C@@H]4F)nn3)cc2c1=O (single isomer, unassigned) [133-ENT2] | 0.01 to 15 nM | 92% | 90% | 12 | 5.25 ×10⁻⁶ cm/s | 60.9 ×10⁻⁶ cm/s | 51 to 100 nM | 51 to 100 nM
Cn1cc(-c2cc(O)c(-c3ccc(O[C@@H]4C[C@H]5CCC[C@H](N5)[C@@H]4F)nn3)cc2Cl)cn1 (single isomer, unassigned) [120-ENT1] | 16 to 50 nM | 29% | 77% | 8 | 3.51 ×10⁻⁶ cm/s | 29.7 ×10⁻⁶ cm/s | 16 to 50 nM | 16 to 50 nM
Cn1ccc2cc(-c3ccc(O[C@H]4C[C@@H]5CC[C@@H](N5)[C@H]4F)nn3)c(O)cc2c1=O (single isomer, unassigned) [126-ENT1] | 16 to 50 nM | 100% | 95% | 14 | 3.5 ×10⁻⁶ cm/s | 48.3 ×10⁻⁶ cm/s | 101 to 500 nM | 51 to 100 nM
Cn1cc(-c2ccc(-c3ccc(O[C@H]4C[C@@H]5CCC[C@@H](N5)[C@H]4F)nn3)c(O)c2F)cn1 (single isomer, unassigned) [119-ENT2] | 51 to 100 nM | 59% | 64% | 3 | 9.17 ×10⁻⁶ cm/s | 29.4 ×10⁻⁶ cm/s | 16 to 50 nM | 16 to 50 nM
Cn1ccc(-c2ccc(-c3ccc(O[C@@H]4C[C@H]5CCC[C@H](N5)[C@@H]4F)nn3)c(O)c2)cc1=O (single isomer, unassigned) [54-ENT1] | 0.01 to 15 nM | 94% | 105% | 57 | 1.1 ×10⁻⁶ cm/s | 63 ×10⁻⁶ cm/s | 16 to 50 nM | 16 to 50 nM
